Laboratory results from publication PMC7531004, “Discovery of gramicidin A analogues with altered activities by multidimensional screening of a one-bead-one-compound library” (Nature Communications, 2020).
Where “and” joins values, the source holds several entries; their conditions need not be identical. Equal entries are not always repeated. Where two headings read alike, the source gives them in different places. Where a SMILES comes first, the peptide text is derived from it. [ ]: non-standard residue; d: D form. The star is where a group is joined. NHCH2CH2OH = OCCN*; For = O=C*

What was measured:
[1] = H+/Na+ transport assay of purified peptides; settings: for Supplementary Figure 5 dose-response value (H+/Na+ transport): three replicate lines
Experimental: First, we evaluated the ion channel function of 1 using liposomes. To mimic a negatively charged Gram-positive bacterial membrane, the liposomes were prepared as large unilamellar vesicles (LUVs) comprising a 19:1 mixture of egg yolk phosphatidylcholine (EYPC) and egg yolk phosphatidylglycerol (EYPG)[57]. Pyranine, a pH-dependent fluorescent dye[58], was encapsulated in the LUVs and a pH gradient was applied across the membrane. H^+/Na^+ transport induced by a peptide was monitored by changes in the fluorescence intensity of pyranine.

[2] = tested on: Streptococcus pyogenes SSI-9; settings: for antibacterial activity/MIC: S. pyogenes; for Antibacterial activity MIC: SSI-9
How it was run: (§1)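 MICs by CLSI broth microdilution in cation-adjusted Mueller Hinton Broth, with 5% laked horse blood added for streptococci, over 64–0.00024 µg/mL peptide.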

[3] = tested on: Enterococcus faecalis JCM5803; settings: for antibacterial activity/MIC: E. faecalis; for Antibacterial activity MIC: JCM5803
How it was run: as §1

[4] = tested on: Listeria monocytogenes 10403S; settings: for antibacterial activity/MIC: L. monocytogenes
How it was run: as §1

[5] = tested on: Streptococcus pneumoniae NBRC 102642; settings: for antibacterial activity/MIC: S. pneumoniae; for Antibacterial activity MIC: NBRC 102642
How it was run: as §1

[6] = tested on: Streptococcus agalactiae JCM5671; settings: for Antibacterial activity MIC: JCM5671; for antibacterial activity/MIC: S. agalactiae
How it was run: as §1

rabbit red blood cells = settings: red cells of rabbit, 2 h
[7] = Membrane disruption assay of purified peptides (carboxyfluorescein leakage); format: biochemical; parameters: key: % lysis; Triton X-100 = 100%, DMSO = 0%; settings: three replicate lines
[8] = read-out: EC50, H+/Na+ transport assay, 1st experiment
[9] = read-out: EC50, H+/Na+ transport assay, 2nd experiment
[10] = read-out: EC50, H+/Na+ transport assay, 3rd experiment
[11] = read-out: H+/Na+ transport activity EC50, EYPC/EYPG (19:1) LUVs
[12] = read-out: H+/Na+ transport activity/EC50, mean ± SD of three independent experiments

| EC50 [1, 8] [nM] | EC50 [1, 9] [nM] | EC50 [1, 10] [nM] | EC50 [1, 11] [nM] | EC50 [1, 12] [nM] | antibacterial activity/MIC [2] [µg/mL] | antibacterial activity/MIC [3] [µg/mL] | Antibacterial activity MIC [3] [µM] | antibacterial activity/MIC [4] [µg/mL] | SMILES | Supplementary Figure 5 dose-response value (H+/Na+ transport) ([1]; concentration 0.000512 nM) | Supplementary Figure 5 dose-response value (H+/Na+ transport) ([1]; concentration 0.00256 nM) | Supplementary Figure 5 dose-response value (H+/Na+ transport) ([1]; concentration 0.0128 nM) | Supplementary Figure 5 dose-response value (H+/Na+ transport) ([1]; concentration 0.064 nM) | Supplementary Figure 5 dose-response value (H+/Na+ transport) ([1]; concentration 0.32 nM) | Supplementary Figure 5 dose-response value (H+/Na+ transport) ([1]; concentration 1.6 nM) | Supplementary Figure 5 dose-response value (H+/Na+ transport) ([1]; concentration 8 nM) | Supplementary Figure 5 dose-response value (H+/Na+ transport) ([1]; concentration 40 nM) | Supplementary Figure 5 dose-response value (H+/Na+ transport) ([1]; concentration 200 nM) | Supplementary Figure 5 dose-response value (H+/Na+ transport) ([1]; concentration 1000 nM) | Supplementary Figure 5 dose-response value (H+/Na+ transport) ([1]; concentration 5000 nM) | also measured |
| --- | --- | --- | --- | --- | --- | --- | --- | --- | --- | --- | --- | --- | --- | --- | --- | --- | --- | --- | --- | --- | --- |
| 1.66 | 0.838 | 2.98 | 1.8 | 1.83 ± 1.08 | 0.13 | 2 | 1.1 | 4 | CC(C)C[C@@H](NC(=O)[C@H](C)NC(=O)CNC(=O)[C@@H](NC=O)C(C)C)C(=O)N[C@@H](C)C(=O)N[C@@H](C(=O)N[C@H](C(=O)N[C@@H](C(=O)N[C@@H](Cc1c[nH]c2ccccc12)C(=O)N[C@H](CC(C)C)C(=O)N[C@@H](Cc1c[nH]c2ccccc12)C(=O)N[C@H](CC(C)C)C(=O)N[C@@H](Cc1c[nH]c2ccccc12)C(=O)N[C@@H](C(=O)N[C@@H](Cc1c[nH]c2ccccc12)C(=O)NCCO)C(C)C)[C@H](C)O)C(C)C)C(C)C [B12] (For-VGA[dL]A[dV]V[dT]W[dL]W[dL]W[dV]W-NHCH2CH2OH) | 2.818 and 0.0271 and -0.589 | 3.476 and 5.315 and 5.077 | 4.761 and 4.753 and 4.729 | 8.321 and 5.0339 and 7.369 | 16.8579 and 20.7391 and 16.934 | 35.2545 and 35.7349 and 38.3822 | 63.7974 and 60.2094 and 62.8038 | 71.4784 and 67.4712 and 69.6703 | 72.1513 and 73.1412 and 71.1696 | 74.8337 and 73.0658 and 70.6415 | 78.5724 and 78.4083 and 76.7501 | antibacterial activity/MIC [5]: 0.016 µg/mL; Antibacterial activity MIC [6]: 8.6 µM; antibacterial activity/MIC [6]: 16 µg/mL; Hemolytic activity HC10 (concentration causing 10% hemolysis) (rabbit red blood cells): > 3000 nM; Supplementary Figure 1 dose-response value ([7]; concentration 0.000512 nM): 14.3151 and 14.218 and 7.531; Supplementary Figure 1 dose-response value ([7]; concentration 0.00256 nM): 2.34 and -6.416 and 3.105; Supplementary Figure 1 dose-response value ([7]; concentration 0.0128 nM): 5.88 and 8.131 and 3.94; Supplementary Figure 1 dose-response value ([7]; concentration 0.064 nM): 3.705 and 7.973 and 3.229; Supplementary Figure 1 dose-response value ([7]; concentration 0.32 nM): 3.808 and 6.955 and 6.51; Supplementary Figure 1 dose-response value ([7]; concentration 1.6 nM): 8.996 and 0.3041 and 5.919; Supplementary Figure 1 dose-response value ([7]; concentration 8 nM): 7.9647 and 15.5867 and 17.3879; Supplementary Figure 1 dose-response value ([7]; concentration 40 nM): 5.306 and 8.903 and 13.6255; Supplementary Figure 1 dose-response value ([7]; concentration 200 nM): 28.0368 and 20.6509 and 3.758; Supplementary Figure 1 dose-response value ([7]; concentration 1000 nM): 25.4415 and 27.5334 and 28.0661; Supplementary Figure 1 dose-response value ([7]; concentration 5000 nM): 41.4626 and 58.8643 and 47.4572 |
| 1.54 | 1.6 | 1.51 | 1.6 | 1.55 ± 0.04 | 1 | 4 | 2.1 | 2 | CC(C)C[C@@H](NC(=O)[C@H](C)NC(=O)CNC(=O)[C@@H](NC=O)C(C)C)C(=O)N[C@@H](C)C(=O)N[C@@H](C(=O)N[C@H](C(=O)N[C@@H](C(=O)N[C@@H](Cc1c[nH]c2ccccc12)C(=O)N[C@H](CC(C)C)C(=O)N[C@@H](Cc1c[nH]c2ccccc12)C(=O)N[C@H](CC(C)C)C(=O)N[C@@H](Cc1c[nH]c2ccccc12)C(=O)N[C@H](CC(C)C)C(=O)N[C@@H](Cc1c[nH]c2ccccc12)C(=O)NCCO)[C@H](C)O)C(C)C)C(C)C [B13] (For-VGA[dL]A[dV]V[dT]W[dL]W[dL]W[dL]W-NHCH2CH2OH) | 3.017 and 1.952 and 2.608 | 3.102 and 3.766 and 3.197 | 2.802 and 3.448 and 5.087 | 7.573 and 8.7038 and 6.571 | 17.1662 and 17.5754 and 16.2478 | 34.5009 and 38.0687 and 36.068 | 62.5081 and 62.2715 and 60.6584 | 69.7421 and 65.8817 and 68.9295 | 70.9489 and 69.9169 and 66.3002 | 70.4102 and 68.4527 and 68.0392 | 77.0905 and 71.4732 and 77.0208 | Antibacterial activity MIC [2]: 0.53 µM; Antibacterial activity MIC [5]: 0.033 µM; antibacterial activity/MIC [5]: 0.063 µg/mL; Antibacterial activity MIC [6]: 4.2 µM; antibacterial activity/MIC [6]: 8 µg/mL; Hemolytic activity HC10 (concentration causing 10% hemolysis) (rabbit red blood cells): > 3000 nM; Supplementary Figure 1 dose-response value ([7]; concentration 0.000512 nM): 12.6222 and 8.681 and 14.1878; Supplementary Figure 1 dose-response value ([7]; concentration 0.00256 nM): 5.0387 and -8.856 and 0.4118; Supplementary Figure 1 dose-response value ([7]; concentration 0.0128 nM): 17.1111 and 10.8226 and 6.743; Supplementary Figure 1 dose-response value ([7]; concentration 0.064 nM): 2.158 and 0.4656 and 8.156; Supplementary Figure 1 dose-response value ([7]; concentration 0.32 nM): 0.4983 and 9.035 and 4.354; Supplementary Figure 1 dose-response value ([7]; concentration 1.6 nM): 8.628 and -5.518 and 5.634; Supplementary Figure 1 dose-response value ([7]; concentration 8 nM): 16.7483 and 16.868 and 17.3839; Supplementary Figure 1 dose-response value ([7]; concentration 40 nM): 8.5256 and 14.4302 and 19.7817; Supplementary Figure 1 dose-response value ([7]; concentration 200 nM): 29.195 and 23.7339 and 11.0358; Supplementary Figure 1 dose-response value ([7]; concentration 1000 nM): 32.784 and 37.4398 and 33.6736; Supplementary Figure 1 dose-response value ([7]; concentration 5000 nM): 66.9777 and 54.6664 and 50.7322 |
| 1.57 | 1.58 | 1.32 | 1.5 | 1.49 ± 0.15 | 32 | 8 | 4.3 | > 64 | CC(C)C[C@@H](NC(=O)[C@H](C)NC(=O)[C@H](NC(=O)[C@H](C)NC(=O)CNC(=O)[C@@H](NC=O)C(C)C)[C@H](C)O)C(=O)N[C@H](C(=O)N[C@H](CC(C)C)C(=O)N[C@@H](Cc1c[nH]c2ccccc12)C(=O)N[C@@H](C(=O)N[C@@H](Cc1c[nH]c2ccccc12)C(=O)N[C@H](CC(C)C)C(=O)N[C@@H](Cc1c[nH]c2ccccc12)C(=O)N[C@@H](C(=O)N[C@@H](Cc1c[nH]c2ccccc12)C(=O)NCCO)C(C)C)[C@H](C)O)C(C)C [B21] (For-VGA[dT]A[dL]V[dL]W[dT]W[dL]W[dV]W-NHCH2CH2OH) | 2.384 and 1.443 and 2.029 | 3.95 and 1.0017 and 1.216 | 7.632 and 2.998 and 3.58 | 6.775 and 3.579 and 3.365 | 12.3823 and 9.367 and 13.3536 | 41.7064 and 40.5042 and 40.751 | 73.419 and 69.4178 and 73.375 | 75.8465 and 74.348 and 76.0982 | 78.878 and 79.2127 and 80.049 | 81.8535 and 78.0432 and 78.4426 | 82.5653 and 78.9179 and 76.8722 | Antibacterial activity MIC [2]: 17 µM; Antibacterial activity MIC ([4]; 10403S): > 34 µM; Antibacterial activity MIC [5]: 0.53 µM; antibacterial activity/MIC [5]: 1 µg/mL; Antibacterial activity MIC [6]: 34 µM; antibacterial activity/MIC [6]: 64 µg/mL; Hemolytic activity HC10 (concentration causing 10% hemolysis) (rabbit red blood cells): > 3000 nM; Supplementary Figure 1 dose-response value ([7]; concentration 0.000512 nM): 14.8974 and 5.3396 and 11.8083; Supplementary Figure 1 dose-response value ([7]; concentration 0.00256 nM): 18.072 and -2.382 and 0.726; Supplementary Figure 1 dose-response value ([7]; concentration 0.0128 nM): -1.184 and 8.357 and 7.1241; Supplementary Figure 1 dose-response value ([7]; concentration 0.064 nM): -0.803 and 4.138 and 1.858; Supplementary Figure 1 dose-response value ([7]; concentration 0.32 nM): 1.612 and 3.04 and 7.439; Supplementary Figure 1 dose-response value ([7]; concentration 1.6 nM): 5.221 and -3.492 and 12.0075; Supplementary Figure 1 dose-response value ([7]; concentration 8 nM): 15.0705 and 19.6578 and 20.2333; Supplementary Figure 1 dose-response value ([7]; concentration 40 nM): 21.4059 and 19.6002 and 32.4332; Supplementary Figure 1 dose-response value ([7]; concentration 200 nM): 39.5964 and 37.7798 and 25.5852; Supplementary Figure 1 dose-response value ([7]; concentration 1000 nM): 40.751 and 51.3594 and 47.003; Supplementary Figure 1 dose-response value ([7]; concentration 5000 nM): 73.5609 and 68.2985 and 59.7258 |
